Laboratory results reported in patent publication US9284562B2, “Biological circuit chemotactic converters” (Trustees of Boston University, priority 2009, dated 2016).

How the values were obtained:
GFP expression = test: Exemplary SIMM circuit of FIG. 2B, GFP output (FIG. 2C); format: cell-based; conditions: inducer added to the exemplary SIMM circuit of FIG. 2B
Source text: FIGS. 2A-2C depict an exemplary switch-module (SIMM) for use in the converters described herein and data from the exemplary switch module (SIMM). FIG. 2A depicts an exemplary SIMM comprising a first inducible promoter sequence (P inducible,1) linked to a forward recombinase recognition site (R1RS), an inverted sequence of a second inducible promoter (P inducible,2), a recombinase sequence (Recombinase 1), and a reverse recombinase recognition site (R1RS). Further upstream of the first inducible promoter sequence of the SIMM is an inverted sequence of a constitutively active inducer agent that is specific for the second inducible promoter. Downstream of the reverse recombinase recognition site of the SIMM is an inverted sequence of a third inducible promoter (P inducible,3) and a sequence encoding a dominant negative version of the inducer agent specific for the second inducible promoter. A further component of the exemplary circuit is a sequence of the second inducible promoter operably linked to an output product. In the absence of any inducing agent, constitutive expression of the inducer agent that is specific for the second inducible promoter drives expression from the inducible promoter operably linked to an output product. […]

signaling complex = conditions: read-out: Affinity (Kd) for signaling complex; cited from earlier work
Hin = Hin (Salmonella typhimurium, UniProt P03013); conditions: relative to wild type sites hixL and hixR; cited from earlier work
Chain of Hin (P03013 whole entry): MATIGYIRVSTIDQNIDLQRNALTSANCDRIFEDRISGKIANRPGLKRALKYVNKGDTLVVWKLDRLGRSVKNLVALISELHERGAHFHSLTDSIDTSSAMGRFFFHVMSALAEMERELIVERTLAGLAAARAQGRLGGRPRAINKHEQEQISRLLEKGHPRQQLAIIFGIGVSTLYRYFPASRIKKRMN

Hin recombinase = Hin recombinase (Salmonella typhimurium, UniProt P03013); conditions: relative to hixL and hixR; cited from earlier work
Chain of Hin recombinase (P03013 whole entry): as above

Compound: CC(C)S[C@@H]1O[C@H](CO)[C@H](O)[C@H](O)[C@H]1O [IPTG, isopropyl β-D-1-thiogalactopyranoside]
- Effect on GFP expression of the circuit (GFP expression): restores the circuit to its initial state

Compound: Cc1c2c(c(O)c3c(O)cccc13)C(=O)[C@]1(O)C(=O)C(C(N)=O)=C(O)[C@@H](N(C)C)[C@@H]1C2 [anhydrous tetracycline, Anhydrotetracycline]
- Effect on GFP expression of the circuit (GFP expression): inhibits GFP expression

Compound: Maltose-binding protein
- Kd (signaling complex): 250 µM

Compound: hixC: composite 26 bp symmetrical hix site, binding site for Salmonella typhimurium Hin recombinase (DNA TTATCAAAAACCATGGTTTTTGATAA; chemistry not given here)
- binding affinity for Hin (Hin): higher binding affinity for Hin
- fold slower inversion rate than wild type sites hixL and hixR (Hin recombinase): 16 fold
